Reference: US20200148617A1, “GEMCABENE, PHARMACEUTICALLY ACCEPTABLE SALTS THEREOF, COMPOSITIONS THEREOF AND METHODS OF USE THEREFOR” (GEMPHIRE THERAPEUTICS INC., priority 2017, published 2020)

What was measured:
[1] = tested on: hepatic mRNA expression in STAM™ mice; experiment: Murine STAM model of NASH-HCC: hepatic gene expression by quantitative RT-PCR; assay type: in vivo, mouse; conditions: for TNF-α mRNA expression (relative, normalized to vehicle-treated normal group): mean±SD, vehicle STAM 3.6±1.0; for ADH-4 mRNA expression levels (relative): vehicle STAM 0.9±0.3; for CRP mRNA levels (relative): vehicle STAM 1.0±0.2; for NF-κB mRNA expression levels (relative): vehicle STAM 1.1±0.1; for MMP-2 mRNA expression levels (relative): vehicle STAM 1.9±0.7; for CCR2 mRNA expression levels (relative): vehicle STAM 3.5±1.7; for MCP-1 mRNA expression levels (relative): vehicle STAM 3.6±1.7; for Sulf-2 mRNA expression levels (relative): vehicle STAM 5.2±1.2; for MIP-1β mRNA levels (relative): vehicle STAM 5.6±2.0; for TIMP-1 mRNA expression (relative): vehicle STAM 12.9±9.0
Description: A study was performed to evaluate the efficacy of gemcabene calcium salt hydrate Crystal Form 1 having a PSD90 of 52 μm as measured by laser light diffraction, in treating non-alcoholic steatosis hepatitis (NASH) in the murine STAM™ model of NASH-HCC.
Briefly, two-day old neonatal C57BL/6 male mice were administered low-dose streptozotocin (STZ), and were subsequently fed a HFC diet from 4 weeks of age. In this model, the mice typically develop liver steatosis and diabetes, reaching steatohepatitis within 3 weeks, followed by cirrhosis within 8 weeks, and carcinoma within 16 weeks. In the current study, mice were administered daily oral gemcabene calcium salt hydrate Crystal Form 1 starting at week 6 of age and were sacrificed at week 9. Telmisartan (with antisteatotic, anti-inflammatory and antifibrotic effects in STAM™ mice) was used as a positive comparator. A baseline reference group was administered vehicle at day 2 of age, and from week 6 of age was vehicle-treated and chow-fed. Five STAM™ groups were streptozocin-treated at day 2 of age and fed a HFC-diet beginning with week 4 of age. These STAM™ groups were orally administered from week 6 one of the following: water-vehicle, gemcabene calcium salt hydrate Crystal Form 1 at 30, 100 and 300 mg/kg daily, or telmisartan ([…]®) 10 mg/kg daily. Telmisartan ([…]®) was purchased from Boehringer Ingelheim GmbH (Germany) and dissolved in pure water. All groups were sacrificed at week 9. Vehicle, gemcabene calcium salt hydrate Crystal Form 1, or telmisartan were administered by oral gavage once daily.
Various gene expression markers of liver metabolism were evaluated by Real-Time PCR (RT-PCR) in all mouse groups. Total RNA was extracted from liver samples using RNAiso (Takara Bio, Japan) according to the manufacturer's instructions. One μg of RNA was reverse-transcribed using a reaction mixture containing 4.4 mM MgCl2 (F. Hoffmann-La Roche, Switzerland), 40 U RNase inhibitor (Toyobo, Japan), 0.5 mM dNTP (Promega, USA), 6.28 μM random hexamer (Promega), 5× first strand buffer (Promega), 10 mM dithiothreitol (Invitrogen, USA) and 200 U MMLV-RT (Invitrogen) in a final volume of 20 μL. The reaction was carried out for 1 hour at 37° C., followed by 5 minutes at 99° C. Real-time PCR was performed using real-time PCR DICE and SYBR premix Taq (Takara Bio). To calculate the relative mRNA expression level, the expression of each gene was normalized to that of reference gene 36B4 (gene symbol: Rplp0). Information of PCR-primer sets is described in Tables 20A-20C. Statistical analyses were performed using the Bonferroni Multiple Comparison Test on GraphPad Prism 6 (GraphPad Software Inc., USA). P values <0.05 were considered statistically significant. Results are expressed as mean±SD.
In order to calculate the relative mRNA expression level, the expression of each gene was normalized to that of the reference gene 36B4 (gene symbol: Rplp0). The gene expression levels were measured by quantitative RT-PCR. Results were normalized with values for the vehicle-treated normal group. […] Gemcabene calcium salt hydrate Crystal Form 1 (PSD90=52 μm) modulated the mRNA expression of many hepatic genes that play a significant role in the liver homeostasis and injury.

[2] = Solubility of gemcabene calcium salt Crystal Form 1 by solvent addition method; assay type: physicochemical
Description: Approximately 20 mg of gemcabene calcium Crystal Form 1 was added to 5×2 mL vials. The solubility in 5 solvents was tested using a solvent addition method. Solvents included acetone, ethanol, ethyl acetate, t-butyl methyl ether (t-BME) and water. Solvent was added in 5 volume (100 μL) aliquots until either dissolution or 2 mL in total had been added. Between each addition, samples were heated to 60° C. (40° C. for acetone and t-BME). Any solids remaining after 24 hours at ambient were analyzed by X-ray powder diffraction (XRPD).

For CC(C)(CCCCOCCCCC(C)(C)C(=O)[O-])C(=O)[O-].O.[Ca+2] [6-(5-Carboxy-5-methyl-hexyloxy)-2,2-dimethylhexanoic acid calcium (gemcabene calcium salt) hydrate Crystal Form 1], the “CCR5 mRNA expression levels (relative)” value ([1]; gemcabene 100 mg/kg) was 1.4±0.3, the “TNF-α mRNA expression (relative, normalized to vehicle-treated normal group)” value ([1]; gemcabene 100 mg/kg) was 2.0±0.8 and the “ACC-1 mRNA expression levels (relative)” value ([1]; gemcabene 100 mg/kg, telmisartan 10 mg/kg, vehicle STAM 0.9±0.2) was 0.7±0.1. The “ADH-4 mRNA expression levels (relative)” value ([1]; gemcabene 100 mg/kg) was 0.6±0.1, the “CRP mRNA levels (relative)” value ([1]; gemcabene 100 mg/kg) was 0.6±0.1 and the “NF-κB mRNA expression levels (relative)” value ([1]; gemcabene 100 mg/kg) was 0.9±0.1. The “MMP-2 mRNA expression levels (relative)” value ([1]; gemcabene 100 mg/kg) was 0.5±0.2, the “CCR2 mRNA expression levels (relative)” value ([1]; gemcabene 100 mg/kg) was 1.6±0.4 and the “MCP-1 mRNA expression levels (relative)” value ([1]; gemcabene 100 mg/kg) was 1.7±0.7. For the same molecule, the “Sulf-2 mRNA expression levels (relative)” value ([1]; gemcabene 100 mg/kg) was 3.8±0.7, the “MIP-1β mRNA levels (relative)” value ([1]; gemcabene 100 mg/kg) was 2.3±0.9 and the “TIMP-1 mRNA expression (relative)” value ([1]; gemcabene 100 mg/kg) was 3.8±1.6. The “CCR5 mRNA expression levels (relative)” value ([1]; gemcabene 300 mg/kg) was 1.3±0.3, the “TNF-α mRNA expression (relative, normalized to vehicle-treated normal group)” value ([1]; gemcabene 300 mg/kg) was 1.9±0.7 and the “ADH-4 mRNA expression levels (relative)” value ([1]; gemcabene 300 mg/kg) was 0.5±0.1. The “CRP mRNA levels (relative)” value ([1]; gemcabene 300 mg/kg) was 0.5±0.1, the “NF-κB mRNA expression levels (relative)” value ([1]; gemcabene 300 mg/kg) was 0.8±0.1 and the “MMP-2 mRNA expression levels (relative)” value ([1]; gemcabene 300 mg/kg) was 0.9±0.2. The “CCR2 mRNA expression levels (relative)” value ([1]; gemcabene 300 mg/kg) was 1.7±0.7, the “MCP-1 mRNA expression levels (relative)” value ([1]; gemcabene 300 mg/kg) was 1.6±0.7 and the “Sulf-2 mRNA expression levels (relative)” value ([1]; gemcabene 300 mg/kg) was 3.3±0.9. The “MIP-1β mRNA levels (relative)” value ([1]; gemcabene 300 mg/kg) was 2.8±1.4, the “TIMP-1 mRNA expression (relative)” value ([1]; gemcabene 300 mg/kg) was 4.4±2.1 and the Solubility ([2]; /-Butyl Methyl Ether (t-BME)) was under 10000 µg/mL. For the same molecule, the Solubility ([2]; Acetone) was under 10000 µg/mL, the Solubility ([2]; Ethanol) was under 10000 µg/mL and the Solubility ([2]; Ethyl Acetate) was under 10000 µg/mL. It also gave a Solubility ([2]; Water) of 33000 µg/mL.
